Measured values published in patent US20100173278A1, “MICROCAPSULES CONTAINING MAMMALS' SPERMATOZOIDS, INSEMINATION DOSE CONTAINING SAME AND METHOD FOR OBTAINING SAME” (Cooperative Bretonne D'Insemination Artificielle Porcine, priority 2007, published 2010).
Where two headings read alike, the source gives them in different places.

Tested on: semen
Experiment: Biocompatibility with semen (non-spermicidal; mobility and viability of the spermatozoa)
Assay type: cell-based, swine
Text: A summary of the tests conducted is given in the table at the end of the description.

| Substance | Bio-compatibility | effect on the mobility and viability of the spermatozoa | spermicidal role with respect to semen | Bio-compatibility (surfactant concentration 0.5%, matrix Suppocire DM) | Bio-compatibility (surfactant concentration 1%, matrix Gelucire 43/01) | Bio-compatibility (surfactant concentration 1%, matrix Suppocire DM) |
| --- | --- | --- | --- | --- | --- | --- |
| Tween 85 | Yes |  |  |  |  |  |
| sorbitan monolaurate [Span 20] |  | lack of any harmful effect | non-spermicidal | Yes | Yes | Yes |
